Test results taken from EP4467141A1, “PYRAZOLO-QUINOLINES AS SELECTIVE INHIBITORS OF GENOTOXIC STRESS-INDUCED IKK/NF- KB PATHWAYS FOR CANCER THERAPY” (Max-Delbrück-Centrum für Molekulare Medizin in der …, priority 2023, dated 2024).

Assays:
Assay in all cases: Kinase panel study
Type in all cases: biochemical
Conditions in all cases: read-out: Percentage of inhibition; for inhibition at 1 µM: 1000nM; for inhibition at 10 µM: 10000nM
CAMK4 (CaMKIV) = target: T1, CAMK4 (CaMKIV) (Homo sapiens, UniProt Q16566)
T1 construct: purchased Thermo Fisher Scientific
Summary of the method: (§1)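 Readout is percentage kinase inhibition. Testing used 1 µM or 10 µM compound in externally run ZLyte/Adapta in vitro assays, and IC50 values were derived within the same panel.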

CSNK1A1 (CK1 alpha 1) = target: T2, CSNK1A1 (CK1 alpha 1) (Homo sapiens, UniProt P48729)
T2 construct: purchased Thermo Fisher Scientific
Summary of the method: as §1

EPHB3 = target: T3, EPHB3 (Homo sapiens, UniProt P54753)
T3 construct: purchased Thermo Fisher Scientific
T3 sequence (P54753 34-998): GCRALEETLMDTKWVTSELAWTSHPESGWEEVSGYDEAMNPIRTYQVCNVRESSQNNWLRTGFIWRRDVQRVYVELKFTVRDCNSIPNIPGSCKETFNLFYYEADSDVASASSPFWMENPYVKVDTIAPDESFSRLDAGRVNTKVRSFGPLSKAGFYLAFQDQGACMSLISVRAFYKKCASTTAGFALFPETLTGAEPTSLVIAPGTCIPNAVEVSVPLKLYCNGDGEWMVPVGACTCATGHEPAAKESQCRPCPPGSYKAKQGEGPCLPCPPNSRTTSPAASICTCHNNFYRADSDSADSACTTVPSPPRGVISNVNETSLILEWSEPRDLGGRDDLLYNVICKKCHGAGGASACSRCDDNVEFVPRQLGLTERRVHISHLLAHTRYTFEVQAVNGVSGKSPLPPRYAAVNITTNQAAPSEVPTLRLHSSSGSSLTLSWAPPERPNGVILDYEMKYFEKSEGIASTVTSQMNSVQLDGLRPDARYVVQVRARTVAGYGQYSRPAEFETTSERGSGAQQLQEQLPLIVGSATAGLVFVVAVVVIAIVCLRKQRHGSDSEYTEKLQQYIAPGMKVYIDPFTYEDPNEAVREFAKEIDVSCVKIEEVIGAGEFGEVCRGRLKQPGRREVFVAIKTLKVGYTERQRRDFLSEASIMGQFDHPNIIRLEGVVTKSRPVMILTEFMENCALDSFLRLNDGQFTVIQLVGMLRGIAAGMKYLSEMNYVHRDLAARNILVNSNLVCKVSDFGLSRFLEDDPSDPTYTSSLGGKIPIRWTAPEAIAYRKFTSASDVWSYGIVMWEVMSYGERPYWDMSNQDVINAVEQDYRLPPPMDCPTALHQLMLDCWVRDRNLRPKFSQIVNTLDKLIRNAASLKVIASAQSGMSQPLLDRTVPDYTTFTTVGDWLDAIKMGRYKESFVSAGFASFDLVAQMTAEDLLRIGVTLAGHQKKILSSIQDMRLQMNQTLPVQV
Summary of the method: as §1

MAPKAPK3 = target: T4, MAPKAPK3 (Homo sapiens, UniProt Q16644)
T4 construct: purchased Thermo Fisher Scientific
Summary of the method: as §1

MET (cMet) = target: T5, MET (cMet) (Homo sapiens, UniProt P08581)
T5 construct: purchased Thermo Fisher Scientific
Summary of the method: as §1

PKN1 (PRK1) = target: T6, PKN1 (PRK1) (Homo sapiens, UniProt Q16512)
T6 construct: purchased Thermo Fisher Scientific
Summary of the method: as §1

RPS6KA2 (RSK3) = target: T7, RPS6KA2 (RSK3) (Homo sapiens, UniProt Q15349)
T7 construct: purchased Thermo Fisher Scientific
Summary of the method: as §1

RPS6KA5 (MSK1) = target: T8, RPS6KA5 (MSK1) (Homo sapiens, UniProt O75582)
T8 construct: purchased Thermo Fisher Scientific
Summary of the method: as §1

SNF1LK2 = target: T9, SNF1LK2 (Homo sapiens, UniProt Q9H0K1)
T9 construct: purchased Thermo Fisher Scientific
Summary of the method: as §1

T9 sequence (Q9H0K1 whole entry): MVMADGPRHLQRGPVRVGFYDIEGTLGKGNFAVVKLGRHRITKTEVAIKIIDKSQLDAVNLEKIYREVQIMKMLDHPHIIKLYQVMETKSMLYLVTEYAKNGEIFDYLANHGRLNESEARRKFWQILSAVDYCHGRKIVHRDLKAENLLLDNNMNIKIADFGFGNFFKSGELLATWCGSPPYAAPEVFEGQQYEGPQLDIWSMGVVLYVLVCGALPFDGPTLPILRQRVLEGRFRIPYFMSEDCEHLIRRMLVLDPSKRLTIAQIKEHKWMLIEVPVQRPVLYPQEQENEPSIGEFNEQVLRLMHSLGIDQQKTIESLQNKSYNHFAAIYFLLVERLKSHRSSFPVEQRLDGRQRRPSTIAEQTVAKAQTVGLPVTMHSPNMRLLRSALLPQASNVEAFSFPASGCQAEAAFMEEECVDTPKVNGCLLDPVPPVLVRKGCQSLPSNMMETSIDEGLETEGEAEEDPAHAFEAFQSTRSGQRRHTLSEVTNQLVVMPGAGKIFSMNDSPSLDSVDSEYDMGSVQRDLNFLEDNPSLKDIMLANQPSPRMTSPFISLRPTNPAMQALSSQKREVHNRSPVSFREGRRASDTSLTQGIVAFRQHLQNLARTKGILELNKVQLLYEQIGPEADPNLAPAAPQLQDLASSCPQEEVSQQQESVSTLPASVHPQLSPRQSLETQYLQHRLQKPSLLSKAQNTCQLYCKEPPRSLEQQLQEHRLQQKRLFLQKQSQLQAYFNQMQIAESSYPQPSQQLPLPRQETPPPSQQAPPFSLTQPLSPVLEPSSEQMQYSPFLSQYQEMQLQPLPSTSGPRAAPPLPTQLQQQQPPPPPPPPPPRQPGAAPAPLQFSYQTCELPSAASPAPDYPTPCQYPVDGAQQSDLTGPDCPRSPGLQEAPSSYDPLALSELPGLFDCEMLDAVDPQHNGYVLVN
T8 sequence (O75582 whole entry): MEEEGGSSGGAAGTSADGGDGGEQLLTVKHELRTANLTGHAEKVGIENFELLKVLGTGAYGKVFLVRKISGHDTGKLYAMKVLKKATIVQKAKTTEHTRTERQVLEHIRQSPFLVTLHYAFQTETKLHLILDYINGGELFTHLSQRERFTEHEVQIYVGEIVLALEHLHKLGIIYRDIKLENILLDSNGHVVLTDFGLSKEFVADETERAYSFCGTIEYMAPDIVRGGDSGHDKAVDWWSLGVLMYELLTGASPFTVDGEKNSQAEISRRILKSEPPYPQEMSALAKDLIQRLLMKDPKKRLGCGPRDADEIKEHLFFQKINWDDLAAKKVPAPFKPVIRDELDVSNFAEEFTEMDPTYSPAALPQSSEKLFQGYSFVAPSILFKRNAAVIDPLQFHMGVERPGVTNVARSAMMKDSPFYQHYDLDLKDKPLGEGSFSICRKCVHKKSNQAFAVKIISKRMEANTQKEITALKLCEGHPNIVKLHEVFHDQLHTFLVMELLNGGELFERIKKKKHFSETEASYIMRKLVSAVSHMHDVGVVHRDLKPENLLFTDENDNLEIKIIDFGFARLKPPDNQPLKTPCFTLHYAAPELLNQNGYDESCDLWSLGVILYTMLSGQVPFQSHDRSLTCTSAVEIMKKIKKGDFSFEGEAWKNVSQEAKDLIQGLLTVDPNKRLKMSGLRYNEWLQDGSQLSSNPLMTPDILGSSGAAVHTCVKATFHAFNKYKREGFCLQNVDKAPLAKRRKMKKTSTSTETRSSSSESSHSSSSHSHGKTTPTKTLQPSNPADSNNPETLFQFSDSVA
T6 sequence (Q16512 whole entry): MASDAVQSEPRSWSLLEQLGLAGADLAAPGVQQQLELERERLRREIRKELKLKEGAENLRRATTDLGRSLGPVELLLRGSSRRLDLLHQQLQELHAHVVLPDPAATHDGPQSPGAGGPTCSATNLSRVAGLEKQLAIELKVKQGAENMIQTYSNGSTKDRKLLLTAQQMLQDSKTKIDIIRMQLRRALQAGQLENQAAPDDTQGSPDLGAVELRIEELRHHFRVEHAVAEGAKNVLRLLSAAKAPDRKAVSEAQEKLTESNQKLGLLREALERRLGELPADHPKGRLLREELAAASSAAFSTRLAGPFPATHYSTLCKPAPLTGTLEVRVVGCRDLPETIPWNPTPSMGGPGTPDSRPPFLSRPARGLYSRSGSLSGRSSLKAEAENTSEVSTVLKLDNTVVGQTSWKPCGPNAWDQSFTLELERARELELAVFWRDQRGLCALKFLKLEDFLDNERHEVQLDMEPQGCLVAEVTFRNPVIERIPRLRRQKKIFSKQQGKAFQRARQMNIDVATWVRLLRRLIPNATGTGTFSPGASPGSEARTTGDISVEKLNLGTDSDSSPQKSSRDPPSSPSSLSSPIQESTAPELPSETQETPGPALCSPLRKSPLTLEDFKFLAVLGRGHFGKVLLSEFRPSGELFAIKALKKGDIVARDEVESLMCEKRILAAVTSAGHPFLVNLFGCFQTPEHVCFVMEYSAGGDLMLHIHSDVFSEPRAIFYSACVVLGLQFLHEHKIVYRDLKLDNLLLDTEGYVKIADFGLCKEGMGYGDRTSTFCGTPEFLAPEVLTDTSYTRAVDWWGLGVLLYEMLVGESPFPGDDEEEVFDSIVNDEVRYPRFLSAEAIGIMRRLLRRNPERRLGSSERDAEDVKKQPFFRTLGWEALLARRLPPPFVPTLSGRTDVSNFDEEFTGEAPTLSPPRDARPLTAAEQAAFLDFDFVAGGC
T7 sequence (Q15349 whole entry): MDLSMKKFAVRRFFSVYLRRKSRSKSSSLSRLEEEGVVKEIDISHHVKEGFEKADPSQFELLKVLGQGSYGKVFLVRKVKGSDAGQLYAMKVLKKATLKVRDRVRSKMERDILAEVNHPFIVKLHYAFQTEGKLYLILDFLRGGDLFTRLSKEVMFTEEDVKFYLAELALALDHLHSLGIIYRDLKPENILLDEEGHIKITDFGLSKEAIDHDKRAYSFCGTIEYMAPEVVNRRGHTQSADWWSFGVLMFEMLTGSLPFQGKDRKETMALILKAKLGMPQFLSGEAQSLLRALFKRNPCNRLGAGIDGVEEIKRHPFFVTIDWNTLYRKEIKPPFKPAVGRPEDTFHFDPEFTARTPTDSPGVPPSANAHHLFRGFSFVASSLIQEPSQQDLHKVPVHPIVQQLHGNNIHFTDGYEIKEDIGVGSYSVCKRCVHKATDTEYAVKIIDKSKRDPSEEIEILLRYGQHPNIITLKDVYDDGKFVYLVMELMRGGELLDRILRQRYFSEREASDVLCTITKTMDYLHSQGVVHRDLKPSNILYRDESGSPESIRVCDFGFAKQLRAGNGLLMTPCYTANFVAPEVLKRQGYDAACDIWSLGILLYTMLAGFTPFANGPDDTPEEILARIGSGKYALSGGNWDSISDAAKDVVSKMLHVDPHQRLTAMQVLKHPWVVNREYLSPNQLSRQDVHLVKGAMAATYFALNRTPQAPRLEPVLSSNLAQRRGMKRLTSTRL
T2 sequence (P48729 whole entry): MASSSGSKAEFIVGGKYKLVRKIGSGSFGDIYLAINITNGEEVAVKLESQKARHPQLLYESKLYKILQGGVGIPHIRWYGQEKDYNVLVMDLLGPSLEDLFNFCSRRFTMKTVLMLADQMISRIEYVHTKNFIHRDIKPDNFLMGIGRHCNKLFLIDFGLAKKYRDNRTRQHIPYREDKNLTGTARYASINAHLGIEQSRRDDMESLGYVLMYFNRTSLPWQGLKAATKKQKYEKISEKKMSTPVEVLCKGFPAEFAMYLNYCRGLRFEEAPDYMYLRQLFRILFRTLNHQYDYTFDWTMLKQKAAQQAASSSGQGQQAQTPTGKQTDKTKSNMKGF
T4 sequence (Q16644 whole entry): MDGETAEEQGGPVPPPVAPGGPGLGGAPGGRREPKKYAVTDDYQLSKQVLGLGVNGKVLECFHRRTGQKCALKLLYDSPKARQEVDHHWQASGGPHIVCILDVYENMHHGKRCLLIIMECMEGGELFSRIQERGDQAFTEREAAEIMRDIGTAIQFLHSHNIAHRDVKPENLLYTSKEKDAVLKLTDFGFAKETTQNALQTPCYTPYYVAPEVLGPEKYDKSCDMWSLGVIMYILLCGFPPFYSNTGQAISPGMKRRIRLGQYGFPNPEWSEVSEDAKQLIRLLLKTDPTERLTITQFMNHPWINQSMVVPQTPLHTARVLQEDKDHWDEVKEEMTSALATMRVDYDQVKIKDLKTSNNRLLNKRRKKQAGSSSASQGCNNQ

SMILES | inhibition at 1 µM (CAMK4 (CaMKIV)) [%] | inhibition at 10 µM (CAMK4 (CaMKIV)) [%] | inhibition at 1 µM (CSNK1A1 (CK1 alpha 1)) [%] | inhibition at 10 µM (CSNK1A1 (CK1 alpha 1)) [%] | inhibition at 1 µM (EPHB3) [%] | inhibition at 10 µM (EPHB3) [%] | inhibition at 1 µM (MAPKAPK3) [%] | inhibition at 10 µM (MAPKAPK3) [%] | inhibition at 1 µM (MET (cMet)) [%] | inhibition at 10 µM (MET (cMet)) [%] | inhibition at 1 µM (PKN1 (PRK1)) [%] | inhibition at 10 µM (PKN1 (PRK1)) [%] | inhibition at 1 µM (RPS6KA2 (RSK3)) [%] | inhibition at 10 µM (RPS6KA2 (RSK3)) [%] | inhibition at 1 µM (RPS6KA5 (MSK1)) [%] | inhibition at 10 µM (RPS6KA5 (MSK1)) [%] | inhibition at 1 µM (SNF1LK2) [%] | inhibition at 10 µM (SNF1LK2) [%]
COc1ccc2c(c1OC)c(=O)n1c3ccc(O)cc3c3ccnc2c31 [MW01, 5-Hydroxy-10,11-dimethoxy-9H-benzo[c]indolo[3,2,1-ij][1,5]naphthyridin-9-one] | -3 | 16 | 5 | 17 | 1 | 11 | 8 | 24 | 14 | 35 | 9 | 16 | 6 | 11 | 5 | 25 | 5 | 12
COc1ccc2cc3c(N)nn(C(=O)c4cccc(N(C)C)c4)c3nc2c1 [MW05, (3-Amino-7-methoxypyrazolo[3,4-b]quinolin-1-yl)-[3-(dimethylamino)phenyl]methanone] | 2 | -9 | 2 | 1 | 6 | 5 | 10 | 3 | 5 | -8 | 15 | 4 | 5 | 6 | 2 | -14 | 4 | -2
